Laboratory results taken from PubChem BioAssay (NCI).
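These data come from cells grown in 96-well plates and exposed to compound for 48 hours at five concentrations. Abbreviation: GI50, concentration required for 50% inhibition of growth. TGI marks complete inhibition of growth.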

Columns and labels:
Assay in all cases: growth of human tumour cells (NCI), 48 h
[1] = test system: COLO 205 colon
[2] = test system: EKVX NSCLC
[3] = test system: LOX IMVI melanoma
[4] = test system: NCI-H226 lung
[5] = test system: NCI-H23 lung
[6] = test system: OVCAR-5 ovarian
[7] = test system: OVCAR-8 ovarian
[8] = test system: SK-MEL-28 melanoma
[9] = test system: SW-620 colon
[10] = test system: UACC-62 melanoma

Compound: CCC[CH2][Sn]([CH2]CCC)([O]C(=O)c1cccnc1SC)[O]C(=O)c1cccnc1SC
- GI50 [1]: 1.09 µM
- TGI [1]: 2.33 µM
- GI50 [2]: 1.04 µM
- TGI [2]: 2.22 µM
- GI50 [3]: 0.302 µM
- TGI [3]: 1.37 µM
- GI50 [4]: 0.883 µM
- TGI [4]: 2.18 µM
- GI50 [5]: 0.771 µM
- TGI [5]: 2.1 µM
- GI50 [6]: 1.76 µM
- TGI [6]: 3.17 µM
- GI50 [7]: 1.3 µM
- TGI [7]: 2.78 µM
- GI50 [8]: 0.722 µM
- TGI [8]: 2.02 µM
- GI50 [9]: 0.248 µM
- TGI [9]: 1.25 µM
- GI50 [10]: 0.791 µM
- TGI [10]: 2.04 µM

Compound: CCN(CC)c1ccc(/C=C/c2ccc3cc(C)ccc3[n+]2CC)cc1
- GI50 [1]: 0.124 µM
- TGI [1]: 0.516 µM
- GI50 [2]: 0.0787 µM
- TGI [2]: 13.2 µM
- GI50 [3]: 0.0666 µM
- TGI [3]: 1.2 µM
- GI50 [4]: 0.152 µM
- TGI [4]: 9.85 µM
- GI50 [5]: 0.0303 µM
- TGI [5]: 12.5 µM
- GI50 [6]: 0.309 µM
- TGI [6]: 16.8 µM
- GI50 [7]: 0.107 µM
- TGI [7]: 12.6 µM
- GI50 [8]: 0.279 µM
- TGI [8]: 2.19 µM
- GI50 [9]: 0.229 µM
- TGI [9]: 15.6 µM
- GI50 [10]: 0.152 µM
- TGI [10]: 1.37 µM

Compound: C=CC(=O)N1CC2(CCN(c3nc(OC4CCN(CCCOC)CC4)nc4c(OCC(F)(F)F)c(-c5c(C)ccc6[nH]ncc56)c(C5CC5)cc34)CC2)C1
- GI50 [1]: 1.97 µM
- TGI [1]: 3.73 µM
- GI50 [2]: 4.33 µM
- TGI [2]: 16.9 µM
- GI50 [3]: 1.7 µM
- TGI [3]: 3.15 µM
- GI50 [4]: 3.66 µM
- TGI [4]: 16.5 µM
- TGI [5]: 1.95 µM
- GI50 [6]: 5.31 µM
- TGI [6]: 18 µM
- GI50 [7]: 3.26 µM
- TGI [7]: 17.4 µM
- GI50 [8]: 1.75 µM
- TGI [8]: 3.37 µM
- GI50 [9]: 1.82 µM
- TGI [9]: 3.59 µM
- GI50 [10]: 5.27 µM
- TGI [10]: 18.9 µM

Compound: COC(=O)C1Cc2c(n(Cc3ccccc3)c3ccccc23)C(CCC(=O)O)N1C(C)C (centres undefined)
- TGI [1]: > 100 µM
- TGI [2]: > 100 µM
- TGI [3]: > 100 µM
- TGI [4]: > 100 µM
- TGI [5]: > 100 µM
- TGI [6]: > 100 µM
- TGI [7]: > 100 µM
- TGI [8]: > 100 µM
- TGI [9]: > 100 µM
- TGI [10]: > 100 µM

Compound: COC1/C=C\C=C(/C)C(=O)NC2=CC(=O)C(=O)C(=C2O)CC(C)CC(OC)C(O)C(C)/C=C(\C)C1OC(N)=O (centres undefined)
- TGI [1]: 13.3 µM
- TGI [2]: 32.7 µM
- TGI [3]: 13.9 µM
- TGI [4]: > 100 µM
- TGI [5]: > 100 µM
- TGI [6]: > 100 µM
- TGI [7]: > 52.4 µM
- TGI [8]: > 49.3 µM
- TGI [9]: 18.3 µM
- TGI [10]: > 32.6 µM

Compound: COc1cc(C2=C(c3ccccc3)COC2=O)cc(OC)c1OC
- GI50 [1]: 0.834 µM
- TGI [1]: 6.69 µM
- GI50 [2]: > 31.8 µM
- TGI [2]: > 100 µM
- GI50 [3]: 18.6 µM
- TGI [3]: > 100 µM
- GI50 [4]: 59.2 µM
- TGI [4]: > 100 µM
- GI50 [5]: 2.41 µM
- TGI [5]: > 27.7 µM
- GI50 [6]: 4.84 µM
- TGI [6]: > 100 µM
- GI50 [7]: 5.04 µM
- TGI [7]: > 51.4 µM
- GI50 [8]: > 100 µM
- TGI [8]: > 100 µM
- GI50 [9]: 1.68 µM
- TGI [9]: > 100 µM
- GI50 [10]: 1.63 µM
- TGI [10]: > 100 µM

Compound: CN1CCN(C)C12C=c1ccccc1=CC21CC1
- TGI [1]: 25.6 µM
- TGI [2]: > 100 µM
- TGI [3]: 90 µM
- TGI [4]: > 100 µM
- TGI [5]: > 100 µM
- TGI [6]: > 100 µM
- TGI [7]: 98 µM
- TGI [8]: 43 µM
- TGI [9]: 48.3 µM
- TGI [10]: 34 µM

Compound: Cn1c2ccccc2c2c(-c3ccccc3)[n+]3ccncc3nc21
- GI50 [1]: 29.5 µM
- TGI [1]: > 100 µM
- GI50 [2]: 51.4 µM
- TGI [2]: > 100 µM
- GI50 [3]: > 100 µM
- TGI [3]: > 100 µM
- GI50 [4]: > 100 µM
- TGI [4]: > 100 µM
- GI50 [5]: > 100 µM
- TGI [5]: > 100 µM
- GI50 [6]: > 100 µM
- TGI [6]: > 100 µM
- GI50 [7]: > 100 µM
- TGI [7]: > 100 µM
- GI50 [8]: > 100 µM
- TGI [8]: > 100 µM
- GI50 [9]: > 100 µM
- TGI [9]: > 100 µM
- GI50 [10]: > 100 µM
- TGI [10]: > 100 µM

Compound: CN1CCN(C(=O)OCc2nc3c(N4CCOCC4)nc(Cl)nc3n2C)CC1
- GI50 [1]: 1.44 µM
- TGI [1]: 4.1 µM
- GI50 [2]: 1.59 µM
- TGI [2]: 2.98 µM
- GI50 [3]: 0.579 µM
- TGI [3]: 1.99 µM
- GI50 [4]: 1.96 µM
- TGI [4]: 5.41 µM
- GI50 [5]: 1.55 µM
- TGI [5]: 3.3 µM
- GI50 [6]: 1.6 µM
- TGI [6]: 3.54 µM
- GI50 [7]: 1.33 µM
- TGI [7]: 5.68 µM
- GI50 [8]: 1.58 µM
- TGI [8]: 3.11 µM
- GI50 [9]: 0.484 µM
- TGI [9]: 1.83 µM
- GI50 [10]: 1.38 µM
- TGI [10]: 2.8 µM

Compound: C/C(CC(=O)Nc1cc(Cl)c(Cl)cc1Cl)=N\NC(N)=O
- TGI [1]: > 100 µM
- TGI [2]: > 100 µM
- TGI [3]: > 100 µM
- TGI [4]: > 100 µM
- TGI [5]: > 100 µM
- TGI [6]: > 100 µM
- TGI [7]: > 100 µM
- TGI [8]: > 100 µM
- TGI [9]: > 100 µM
- TGI [10]: > 100 µM
